Experimental data published in patent US11090292B2, “Compositions and methods of use of an inappetance-controlling compound” (Aratana Therapeutics, Inc., priority 2012, dated 2021).

Tests used:
[1] = Example 12: food consumption; assay type: in vivo, cats; settings: IV 0.75 mg/kg or oral 3 mg/kg, short treatment
Description: Similar to some of the other pharmacokinetic analyses conducted in dogs and cats, an additional pharmacokinetic study was conducted in cats to assess capromorelin formulations that allow sufficient drug to circulate to produce appetite stimulation and to define the capromorelin pharmacokinetic profile in cats. Briefly, twelve cats were randomized into Group 1 (six cats) and Group 2 (six cats). Group 1 received an intravenous formulation that included 0.75 mg/kg of capromorelin dissolved in sterile water and Group 2 received a previously tested formulation via oral gavage. Food consumption was determined daily for all cats. Specifically, animals were offered feed at approximately 11:00 AM, with the removal of feed at approximately 3:00 PM. Upon removal of feed, the amount consumed was calculated.

[2] = Example 1: clinical observations / toxicological responses; assay type: in vivo; settings: 3 mg/kg twice daily or 6 mg/kg once daily, 7 days
Description: (§1) During the ten day study period, on an at least once-daily basis, each of the dogs was monitored for clinical observations, mortality, morbidity, body mass, and food consumption. Serum samples were taken to measure capromorelin concentration, GH concentration, IGF-1 concentration, and cortisol concentration. Serum samples were taken on days 1, 2, 4, and 7 at −15 minutes (pre-dose), immediately prior to dosing (0 minutes) and 30, 45, 60, 90, 120, 240, 360, and/or 480 minutes post dosing. Additional blood samples were taken at 8 AM on Day 10 of the study to assess long-term impact of the active treatments.

[3] = test system: insulin-like growth factor 1 (IGF-1); assay: Example 1: serum IGF-1 concentration; assay type: in vivo, Beagle dogs
Description: (§2) A controlled, seven-day study was performed to assess the impact of different capromorelin-dosing regimens on the production of insulin-like growth factor 1 (hereinafter “IGF-1”), growth hormone (hereinafter “GH”), and cortisol. The different capromorelin-dosing regimens were also assessed for the impact on food intake and changes in body mass.
(§3) Eighteen adult non-naïve Beagle dogs (nine males and nine females) were divided into one of three treatment groups. Each of the three treatment groups included three males and three females. Group A, which was the control group, was dosed twice per day, via oral gavage, with a vehicle (deionized water alone) and was used as a baseline data point for comparison against the active treatment regimens. Group B comprised an active treatment group that received two treatments per day, via oral gavage, with a capromorelin-containing composition with a concentration of 3 mg/kg capromorelin per treatment. Finally, Group C comprised an active treatment group that received one treatment per day, via oral gavage, with a capromorelin-containing composition with a concentration of 6 mg/kg capromorelin per treatment.
During the ten day study period, on an at least once-daily basis, each of the dogs was monitored for clinical observations, mortality, morbidity, body mass, and food consumption. […]

[4] = Example 9 four-day cat dosing regimen study: food consumption and body weight; assay type: in vivo, cats; settings: for increase in body weight relative to baseline measurements: four days
Description: (§4) A four-day study was performed to further assess the pharmacokinetics of formulation 8 from Example 3 (i.e., the most “well-accepted” formulation) in cats. Moreover, the administration of formulation 8 was also analyzed to determine if administration of this formulation could induce sustained production of IGF-1 and relatively depressed, mitigated, or lower levels of cortisol. The different capromorelin-dosing regimens were also assessed for the impact on food intake and changes in body mass.
(§5) Twenty-four adult cats were divided into one of four treatment groups, with all four groups as active treatment groups. Each of the active treatment groups included 6 cats. The first group received a sterile injection of a capromorelin composition containing a 0.75 mg/kg concentration of capromorelin once per day during the four-day experiment. The second group received a once-daily sterile injection of a capromorelin composition at a concentration of 2 mg/kg. The third group received a once-daily dose of a capromorelin composition at a concentration of 2 mg/kg, via oral gavage. The fourth group received a once-daily dose of a capromorelin composition containing capromorelin at a concentration of 4 mg/kg, via oral gavage.
During the seven day study period, on an at least once-daily basis, each of the cats was monitored for clinical observations, mortality, moribundity, body mass, acceptability/palatability, and food consumption. Serum samples were taken to measure capromorelin concentration, IGF-1 concentration, and cortisol concentration. Serum samples were taken on days 1 and 4 immediately prior to dosing (0 minutes) and 30, 60, 90, 120, 240, 360, and/or 480 minutes post dosing. Additional serum samples were taken at 8 AM on Day 7 of the study to assess long-term impact of the active treatments.

[5] = Example 1: capromorelin concentration in serum; assay type: in vivo
Description: as §2, §3, §1

growth hormone = assay: Example 5: serum growth hormone; assay type: in vivo, Beagle dogs; settings: Groups 2-4; mitigated by Day 4, further reduced by Day 7
Description: In order to further refine the dosing regimen that would provide an appropriate blood profile of capromorelin and desired results from the perspective of increased food intake and weight gain, an additional series of experiments were conducted. In these experiments, twenty-four adult (male and female) Beagle dogs weighing approximately 9 to 13 kilograms were randomly divided into four groups. Group 1 received a placebo formulation, without any active compound, two times per day; Group 2 received a composition comprising 3 mg/kg of body weight of capromorelin one time per day; Group 3 received a composition comprising 4.5 mg/kg of body weight of capromorelin one time per day; and Group 4 received a composition comprising 3 mg/kg of body weight of capromorelin two times per day. […]
In these experiments, the animals were orally administered the flavored formulation at approximately 8:00 AM and, for Group 4 only, again at 6:00 PM. […] Food consumption was calculated and recorded on Days −7 through Day 7. Baseline food consumption was calculated for each individual dog as the average number of grams of food consumed on Days −3, −2, and −1. The study period food consumption was calculated for each individual dog as the average of Days 1 through 7. […]

cortisol = assay: Example 9: serum cortisol concentration; assay type: in vivo, cats; settings: day 4
Description: as §4
as §5, with “The fourth group received a once-daily dose of a capromorelin composition containing capromorelin at a concentration of 4 mg/kg, via oral gavage.” left out
During the seven day study period, on an at least once-daily basis, each of the cats was monitored for clinical observations, mortality, moribundity, body mass, acceptability/palatability, and food consumption. […]

[6] = Days 1 and 7, 3 mg/kg twice daily or 6 mg/kg once daily oral gavage

CN1N=C2CCN(C(=O)[C@@H](COCc3ccccc3)NC(=O)C(C)(C)N)C[C@@]2(Cc2ccccc2)C1=O.O=C(O)C(O)C(O)C(=O)O [capromorelin]
observed food consumption [1]: did not reveal any significant increases in food consumption | toxicological responses [2]: no toxicological responses were noted | serum IGF-1 levels versus deionized water three days after terminating treatment ([3]; Day 10): not significantly different | serum IGF-1 levels relative to deionized water ([3]; days 2, 4 and 7 of treatment, both doses): remained consistently higher | increase in body weight relative to baseline measurements ([4]; 0.75 mg/kg sterile injection once daily): 1.33% | increase in body weight relative to baseline measurements ([4]; 2 mg/kg oral once daily): 0.70% | increase in body weight relative to baseline measurements ([4]; 2 mg/kg sterile injection once daily): 2.37% | increase in body weight relative to baseline measurements ([4]; 4 mg/kg oral once daily): 1.47% | food consumed relative to prior days of the experiment ([4]; sterile injectable formulations (0.75, 2 mg/kg) or 4 mg/kg oral gavage, once daily): consumed more food on day 4 | serum capromorelin by eight hours after dosing (480 minutes) [5, 6]: decreased to near undetectable levels | time after dosing at which serum capromorelin concentrations spike [5, 6]: approximately 0.5 h | serum capromorelin concentration, 6 mg/kg dose relative to twice-daily 3 mg/kg dose ([5]; oral gavage): about 2.3 fold | growth hormone in the serum (growth hormone): increase in growth hormone in the serum on Day 1 | increases in cortisol serum levels relative to day 1 (cortisol): mitigated on day 4
